ChEMBL document CHEMBL1151300, “Studies on Aristolochia III. Isolation and biological evaluation of constituents of Aristolochia indica roots for fertility-regulating activity” (J Nat Prod, 1984)
Activity calls are given as the source filed them. The calls are words filed in the database; no cut-off is given here.

What was measured:
[1] = system: Rattus norvegicus; experiment: Toxicity in Sprague-Dawley rat at 40 mg/kg; format: organism-based; set-up: dose 40 mg/kg; conditions: in vivo
[2] = system: Syrian golden hamster; experiment: Toxicity in golden syrian hamster at 25 mg/kg; format: organism-based, Mesocricetus auratus; set-up: dose 25 mg/kg; conditions: in vivo
[3] = system: Rattus norvegicus; experiment: Antifertility effect in Sprague-Dawley rat assessed as number of pregnant animals at 10 mg/kg administered postcoitally for 1 to 10 days; format: functional, organism-based; set-up: dose 10 mg/kg
[4] = system: Rattus norvegicus; experiment: Antifertility effect in Sprague-Dawley rat assessed as number of pregnant animals at 40 mg/kg, po administered postcoitally for 1 to 10 days; format: functional, organism-based; set-up: dose 40 mg/kg
[5] = system: Rattus norvegicus; experiment: Antifertility effect in Sprague-Dawley rat assessed as number of pregnant animals at 40 mg/kg, po administered postcoitally for 1 to 6 days; format: functional, organism-based; set-up: dose 40 mg/kg
[6] = system: Rattus norvegicus; experiment: Antifertility effect in Sprague-Dawley rat assessed as number of pregnant animals at 2 mg/kg administered postcoitally for 1 to 10 days; format: functional, organism-based; set-up: dose 2 mg/kg
[7] = system: Mus musculus; experiment: Antifertility effect in CD1 mouse assessed as number of pregnant animals at 100 mg/kg, po administered postcoitally for 6 days; format: functional, organism-based; set-up: dose 100 mg/kg
[8] = system: Mus musculus; experiment: Antifertility effect in CD1 mouse assessed as number of pregnant animals at 50 mg/kg, po administered postcoitally for 6 days; format: functional, organism-based; set-up: dose 50 mg/kg
[9] = system: Rattus norvegicus; experiment: Antifertility effect in Sprague-Dawley rat assessed as number of pregnant animals at 58 mg/kg, po administered postcoitally for 1 to 6 days; format: functional, organism-based; set-up: dose 58 mg/kg

In the case of COc1cccc2c1cc([N+](=O)[O-])c1c(C(=O)O)cc3c(c12)OCO3 [ARISTOLOCHIC ACID], the Activity [1] is reported as “Active”, the Activity [2] is reported as “Active” and the Activity [3] is reported as “inactive”. The Activity [4] was “Active”.

COc1cccc2c1ccc1c(C(=O)O)cc3c(c12)OCO3 was tested, and the Activity [5] was “inactive” and the Activity [6] was “inactive”.

In the case of C[C@@H]1CCC[C@]23C[C@@H](CC[C@@]12C)[C@@](C)(O)C3, the Activity [7] is reported as “inactive”.

In the case of COC(=O)c1cc2c(c3c1ccc1c(OC)cccc13)OCO2, the Activity [8] is reported as “inactive”.

With O=C1OC[C@H](Cc2ccc3c(c2)OCO3)/C1=C\c1ccc2c(c1)OCO2 the Activity [9] was “inactive”.
